Laboratory results from patent publication US20260234207A1, “Keratin YK93-8, and Preparation Method Therefor, Pharmaceutical Composition Thereof and Use Thereof” (INSTITUTE OF MATERIA MEDICA, CHINESE ACADEMY OF MEDICAL …, priority 2022, published 2026).
Structures can show the parent of a compound that is named as a salt. Where two headings read alike, the source gives them in different places.

Columns and labels:
[1] = test system: acetic acid-induced writhing of mice; experiment: Pharmacodynamic test on mouse pain model (acetic acid-induced writhing); type: in vivo, Male Kunming mice; details: 1% acetic acid intraperitoneally, writhing within 15 minutes
Method: • Animals: Male Kunming mice; • Drugs: Tramadol Hydrochloride Sustained Release Tablets, Glacial acetic acid, YK93-8; • Instruments: electronic balance, timer • Experiment grouping: • Normal control group; • Positive control group: Tramadol Hydrochloride group; • Protein YK93-8, (0.5 g/kg) group. • Method:
Mice in the YK93-8 (0.5 g/kg) group were administered by gavage, while mice in the model group were given an equal volume of CMC-Na once a day for 7 consecutive days. 30 minutes after the last administration, 1% acetic acid was administered intraperitoneally, and the writhing times of mice within 15 minutes was recorded, and the inhibition rate of drug-induced writhing reaction was calculated. The observation criteria were concave abdominal cavity, extended hind limbs, and raised buttocks.
The inhibition rate was calculated by (Mean number of writhing reactions in the normal control group−Mean number of writhing reactions in the treatment group)/Mean number of writhing reactions in the normal control group *100%.

Lewis lung cancer = test system: Lewis lung cancer
Method: Subcutaneous inoculation of Lewis cell suspension to replicate mouse Lewis lung cancer model: The Lewis tumor tissue was ground into a suspension with a glass homogenizer, the tumor suspension was aspirated with a syringe, the number of live cells was calculated, the concentration of the cells was adjusted to 2.6*10^6/ml with physiological saline, and then the suspension was injected to the left armpit of the mouse with 0.2 ml/mouse. On the next day, the mice were randomly divided into normal control group, cyclophosphamide (100 mg/kg) group, and YK93-8 (0.5 g/kg) group. Cyclophosphamide was injected intraperitoneally for single time, mice in YK93-8 group were given intragastric administration every day for 10 consecutive days, mice in the normal control group were orally given the equal volume of sodium carboxymethyl cellulose. On the day of the treatment, the weight was measured, 20 μl of blood was obtained from the orbital blood and the routine blood analysis was performed. The tumor blocks were stripped, weighed and photographed, and the tumor suppression rate was calculated.
(§1) The tumor suppression rate [(The average weight of the tumor in the normal control group—the average weight of the tumor in the experimental group)/The average weight of the tumor in the normal control group×100%] and the average value, standard deviation and standard errors of tumor weight were calculated.

EL-4 lymphoma = test system: EL-4 lymphoma
Method: (§2) • Animals: Male C57BL/6J mice • Drugs: Cyclophosphamide for injection (CTX), YK93-8 • Instruments: electronic balance, Five classified blood cell analyser • Experiment grouping: • Normal control group; • Positive control group: cyclophosphamide (100 mg/kg); • Protein YK93-8, (2 g/kg) group. • Method:
Subcutaneous inoculation of EL-4 cell suspension to replicate a mouse lymphoma model: The EL-4 tumor tissue was ground into a suspension using a glass homogenizer, the tumor suspension was aspirated with a syringe, the number of live cells was calculated, the cell concentration was adjusted to 2.0*10^6/ml with physiological saline, and then the suspension was injected into the left armpit of mice with 0.2 ml/mouse. On the next day, mice were randomly divided into a normal control group, a cyclophosphamide (100 mg/kg) group, and a YK93-8 (2 g/kg) group. Cyclophosphamide was injected intraperitoneally for single time, mice in the YK93-8 (2 g/kg) group were orally administered by gavage daily for 13 consecutive days, while mice in the normal control group were administered orally with an equal volume of sodium carboxymethyl cellulose. On the day of treatment, weight was measured, 20 μl of blood was obtained from the orbital blood and the routine blood analysis was performed. The tumor blocks were stripped, weighed and photographed, and the tumor suppression rate was calculated.
as §1, with “and” for “and the”

B16F10 melanoma = test system: B16F10 melanoma
Method: as §2, with “female” for “Male”, “mice;” for “mice”, “cyclophosphamide group” for “cyclophosphamide”
Subcutaneous inoculation of B16F10 cell suspension to replicate a mouse melanoma model: Under sterile conditions, the tumor block was removed, ground into tumor fluid, the concentration was adjusted with physiological saline to 2.58×10^6/ml, and 0.2 ml was taken to evenly inoculate subcutaneously on the armpit back of mice. On the next day, the animals were randomly grouped and administration began (recorded as Day 0). CTX (100 mg/kg) was administered once a week, YK-93-8 (2 g/kg) was administered daily, and mice in the normal control group were orally administered an equal volume of sodium carboxymethyl cellulose. On the day of treatment, weight was measured, 20 μL of blood was obtained by taking blood from the eye socket and the blood routine analysis was performed, the tumor block was peeled off, weighed and photographed, and the tumor suppression rate was calculated.
as §1, with “and” for “and the”

[2] = test system: mouse prostatic hyperplasia model; experiment: Pharmacodynamic test on mouse prostatic hyperplasia model (propionate testosterone, androgen loading); details: for Average weight / wet weight of the prostate: 30 days of administration; for prostate index: 30 days, wet weight of the prostate (mg)/body weight (g)
Method: Preparation of experimental animals: The experimental animals were adapted to the experimental environment (temperature 22° C.±2° C., relative humidity 50%±2%) for 1 day.
Subcutaneous injection of propionate testosterone to replicate mice prostatic hyperplasia model: Mice were randomly grouped 10 in each group before the model being established. Propionate testosterone (0.01 mg/kg) in soybean oil was injected subcutaneously, once a day for 30 consecutive days. Mice in the normal control group were injected subcutaneously with an equal volume of sodium carboxymethyl cellulose. […] Mice were weighed on the next day. After 30 days of administration, mice were weighed, executed. The prostate was excised through a median incision in the lower abdomen, the wet weight was weighed, and the prostate index was calculated by the wet weight of the prostate (mg)/body weight of the mouse (g).
The average value, standard deviation and standard error of the prostate index in each group were calculated. The data from the groups were compared with each other by T.TEST, and P<0.05 was considered as a significant difference.

[3] = test system: lactation of pregnant mice; experiment: Pharmacodynamic test on lactation of pregnant mice; type: in vivo, female Kunming pregnant mice; details: 2 g/kg by gavage, 13 days
Method: • Animals: female Kunming pregnant mice, weight: 30-50 grams • Drug: YK93-8 • Instruments: electronic balance • Experiment grouping: • Normal control group; • Protein YK93-8, (2 g/kg) group. • Method:
The parturition date of each pregnant mouse was recorded and the mice were randomly divided into normal control group and YK 93-8 group based on the parturition date.
YK93-8 (2 g/kg) was administered by gavage, and the weight and weight gain of the young mice were recorded daily. After 13 days of administration, the female mouse was euthanized using cervical dislocation method, and […] of blood samples were collected from the eye socket, left standing at room temperature for 1-2 hours, centrifuged 1000 g for 20 minutes. The content of prolactin in serum was measured.
The average daily weight gain of young mice (lactation yield of female mice) and serum prolactin content of female mice in each group were calculated.

[4] = 0.1 g/kg intraperitoneally, single time
[5] = 100 mg/kg intraperitoneally, single time, P<0.05
[6] = 0.5 g/kg intragastric every day for 10 days
[7] = 2 g/kg by gavage daily for 13 days

With COc1cccc(C2(O)CCCCC2CN(C)C)c1 (stereo not drawn) [Tramadol Hydrochloride] the Number of writhing ([1]; 50 mg/kg) was 0.0 ± 0.00.

In the case of O=P1(N(CCCl)CCCl)NCCCO1 (stereo not drawn) [cyclophosphamide, Cyclophosphamide], the “Change of weight (g) Before administration” value (Lewis lung cancer; 0.1 g/kg group) is reported as 17.60 ± 0.59 g, the “Change of weight (g) After administration” value (Lewis lung cancer; [4]) is reported as 19.95 ± 0.77 g and the “Tumor suppression (%)” value (Lewis lung cancer; [4]) is reported as 95.35%. The “Tumor weight” value (Lewis lung cancer; [4]) was 0.14 ± 0.09 g, the “Tumor suppression (%)” value (EL-4 lymphoma; [4]) was 95.67% and the “Tumor weight” value (EL-4 lymphoma; [4]) was 0.12 ± 0.03 g. The “leukocytes (blood routine test)” value (EL-4 lymphoma; [5]) was “significantly reduced”, the “lymphocytes (blood routine test)” value (EL-4 lymphoma; [5]) was “significantly reduced” and the “monocytes (blood routine test)” value (EL-4 lymphoma; [5]) was “significantly reduced”. The “neutrophils (blood routine test)” value (EL-4 lymphoma; [5]) was “significantly reduced”, the “Change of weight (g) Before administration” value (B16F10 melanoma; 0.1 g/kg group) was 18.97 ± 0.55 g and the “Change of weight (g) After administration” value (B16F10 melanoma; 0.1 g/kg once a week) was 19.07 ± 1.46 g. The “Tumor suppression (%)” value (B16F10 melanoma; 0.1 g/kg once a week) was 85.82% and the “Tumor weight” value (B16F10 melanoma; 0.1 g/kg once a week) was 0.26 ± 0.11 g.

For CC(C)(C)NC(=O)[C@H]1CC[C@H]2[C@@H]3CC[C@H]4NC(=O)C=C[C@]4(C)[C@H]3CC[C@]12C [finasteride], the “Average weight” value ([2]; 1 mg/kg orally) was 43.5 ± 3.5 g, the “wet weight of the prostate” value ([2]; 1 mg/kg orally) was 31.8 ± 4.8 mg and the prostate index ([2]; 1 mg/kg orally) was 0.75 ± 0.12. For the same molecule, the “Average weight” value ([2]; 3 mg/kg orally) was 40.7 ± 3.1 g, the “wet weight of the prostate” value ([2]; 3 mg/kg orally) was 29.2 ± 1.4 mg and the prostate index ([2]; 3 mg/kg orally) was 0.72 ± 0.08.

B1: YK93-8: keratin with the amino acid sequence shown in SEQ ID NO.1, expressed in Escherichia coli, band around 63 KD; protein of Example 3 (protein, listed as Manis pentadactyla)
chain: MSCRSYRVSSGRQIGNFSSCSAVMPQSLSRFRASSVSCRSGPGFRGLGGFGSRSVIAFGSCPPRMAAVGPRPIRCGVGFSAGSGLAFGLGDSCGAGLGFGTGSGLGYGFGGPGFGYRIGGVGVPAAPSITAVTVNQSLLTPLNLEIDPNAQRVKRDEKEQIKTLNNKFASFIDKVRFLEQQNKLLETKWNFLQDQKGVQSNLEPLFENYVANLRRQLDIVSSDQARLETERNNMQDVLEGFKKKYEEEVVFRANAENEFVALKKDVDAAFLNKSDLEANVDALIQEIDFLKNLYMAEIQLLQSHISDTSVIVKMDNSRDLNFDGIIAEVKAQYEEVARRSRADAEAWYQTKYEEMRMTAGQHSDNLRNTRDEINELTRVIQRLKAEIEHTKAQRAKLEAAIAEAEQQGEAALNDAKCKLADLEAALQQAKQDMARQLREYQELMNIKLALDIEIATYRRLLEGEEIRICEGVGPVNISVSSSRGGVVCGPEPLLTSSTLSRGGVTFSGGSSIRSSGACGLSLGGSRVVAAGGDVLSAGSRGGSVLVGDACAPSIPCPLPTDGGFSSCSGGRSSLGSSVRFVSTTTSRRTKY
B1 was tested, and the “wet weight of the prostate” value ([2]; 0.5 g/kg orally) was 44.3 ± 9.3 mg, the prostate index ([2]; 0.5 g/kg orally) was 1.12 ± 0.20 and the Number of writhing ([1]; 0.5 g/kg by gavage once a day for 7 days) was 13.76 ± 11.84. The “Change of weight (g) Before administration” value (Lewis lung cancer; 0.5 g/kg group) was 17.91 ± 0.26 g, the “Change of weight (g) After administration” value (Lewis lung cancer; [6]) was 21.93 ± 0.93 g and the “Tumor suppression (%)” value (Lewis lung cancer; [6]) was 27.83%. For the same molecule, the “Tumor weight” value (Lewis lung cancer; [6]) was 2.16 ± 0.47 g, the “Tumor suppression (%)” value (EL-4 lymphoma; [7]) was 13.18% and the “Tumor weight” value (EL-4 lymphoma; [7]) was 2.44 ± 0.23 g. For the same molecule, the “weight gain of young mice (lactation yield of female mice)” value [3] was “no significant effect”, the “serum prolactin content in female mouse” value ([3]; vs normal control group) was “to some extent increase” and the “Change of weight (g) After administration” value (B16F10 melanoma; 2 g/kg daily) was 19.78 ± 0.76 g. The “Tumor suppression (%)” value (B16F10 melanoma; 2 g/kg daily) was 50.18%, the “Tumor weight” value (B16F10 melanoma; 2 g/kg daily) was 0.90 ± 0.41 g and the “Change of weight (g) Before administration” value (B16F10 melanoma; 2 g/kg group) was 19.20 ± 0.54 g.
